Consider one compound from US5470860A, “1,4-dihydropyridines for use in the treatment of dermatoses” (Byk Gulden Lomberg Chemische Fabrik GmbH, priority 1991, dated 1995).

The test system of test [1] is human transformed keratinocytes (HaCat). The test can be described thus: cells. The following applies: 72 h. As to the method:
In a second cell reproduction test, human transformed keratinocytes (HaCat) are employed which are cultured in DMEM culture medium with an addition of 10% calf serum. Cells which have grown to confluence beforehand are isolated with trypsin and distributed in 6-well plates in a density of 40×10^3.
The test substance is added 24 h after distribution and after incubation for a further 72 h the cell count is determined using a Coulter counter. Controls are incubated without further additions or with the addition of the solubilizer polyethylene glycol 400 (0.05%).
Evaluation was made in each case for 6 wells/concentration.

The subject of another test is human keratinocytes. The test can be described thus: cells. The following applies: Keratinocyte, 264 h, read-out: average inhibitory concentration (IC50).
[2] abbreviates: read-out: % inhibition of growth.

One may read the inhibition as the drop in the measured response relative to a control, in per cent.

Description for human keratinocytes: To determine the action, firstly human keratinocytes from the preputial skin of neonates after the 1st passage are distributed in MCDB153 medium in 96-well microtiter plates (2×10^3 cells/well) and the compound given below is added in concentrations of from 10^-10 to 10^-5 M, blank controls containing only the solubilizer DMSO (1%). The period of incubation is 11 days, and after another 2 days in each case there is a change of medium followed by renewed addition of substance.
To determine the rate of cell reproduction, incubation is carried out for 1 h with 4-methylumbelliferyl heptanoate (MUH) according to the method described by R. Stadler et al., Journal of Investigative Dermatology 93, 532-534, 1989, after which the fluorescence intensity is measured using a Titertek Fluoroskan.
4 experiments were carried out, in each case with 4 wells/concentration.

As for `COC(=O)C1=C(C)NC(C)=C(C(=O)OCCCN2CCC(c3ccccc3)(c3ccccc3)CC2)C1c1cccc([N+](=O)[O-])c1` (single isomer, unassigned) [Compound 1, 3-methyl 5-[3-(4,4-diphenyl-1-piperidyl)propyl] (-)-1,4-dihydro-2,6-dimethyl-4-(3-nitrophenyl)pyridine-3,5-dicarboxylate], in test [1] (setting [2]), the inhibition at 1 µM amounted to 60% and the inhibition at 10 µM came out at 96%. The IC50 in test [1] (read-out: inhibitory concentration (IC50)) was determined as 520 nM. Also, the IC50 with human keratinocytes worked out at 88 nM.
